These results are taken from US11672828B2, “Cellular receptors and uses thereof” (TRUSTEES OF BOSTON UNIVERSITY, priority 2020, dated 2023).

“Also recorded” adds a separate entry of the source.

The subject of one test is apSyN. The test is described as follows: Plated ligand assay, apSyN (AP-SynNotch) cells with UAS:H2B-mCherry reporter. Format: cell-based. Particulars: for reporter (mCherry) activation by plated ligand: apSyN/AP-SynNotch cells with or without BirA-ER (BirA-KDEL). The source says:
In order to determine if the apSyN could undergo predicted signaling mechanics of extracellular binding and intracellular domain release based on the presence of the PTM, we used an established Notch signaling assay23 (FIG. 2A). […] We instead interrogated the signaling capabilities by coating tissue culture wells with an anti-Biotin antibody that is specific for biotinamide24.
Next to be evaluated were the signaling properties of AP-SynNotch. Here, the activity of the receptor in response to different ligands was compared in cells with and without BirA-KDEL. Using a receptor containing a Gal4-VP64 ICD, the signaling activity of AP-SynNotch was measured in transfected HEK293 cells containing a stably-integrated reporter gene (UAS:H2B-mCherry). In order to stimulate receptor activation, transfected cells were grown on culture surfaces containing immobilized ligands, and reporter expression levels were measured the next day using flow cytometry (FIG. 11D).

Another test concerns antiBiot synthetic Notch. Put plainly: Plated ligand assay, antiBiot synthetic Notch (Anti-Biotinamide SynNotch) cells. Particulars: soluble ligand introduced at the time of plating.
Another test deals with anti-Biotin ligand. The test is described as follows: Coculture luciferase assay, apSyN/BirA receiver cells with anti-Biotin ligand sender cells, soluble competitors. It counts as cell-based. Particulars: different concentrations of the molecules in coculture. As to the method: To examine this behavior more quantitatively, we used an established luciferase-based coculture assay28. Receptor cells were transfected with a luciferase reporter plasmid, and ligand expressing cells were added the next day. Finally cells were lysed after one day of coculturing to examine the luminescence due to luciferase expression (FIG. 3C).
We also saw a similar ability to control activation with small molecules in this coculture assay. […] We sought to develop an inhibition method that is specific for this pathway and therefore allow for additional control of signaling without disrupting native pathways. […] We used the previously established coculture assay while culturing cells in different concentrations of the described molecules and then analyzed the corresponding luciferase expression.
The luciferase assay used for coculture studies was adapted from Gordon et al28. Synthetic Notch receiver cells were reverse transfected in a 96-well plate (50 k cells per well) with 9.9 ng of UAS:Firefly-Luciferase plasmid and 0.1 ng Nanoluc plasmid per well. 24 hr post-transfection, 80 k sender cells were added to each well. 48 hr post-transfection, cells were lysed (Nano-Glo Dual-Luciferase Reporter Assay System, Promega) and the luminescence was found following the manufacturer's instructions. Each well was normalized to the luminescence output of Nanoluc (transfection control).
Tight-regulation is a requirement of cell-engineered systems in biomedical applications, and such control can be achieved by combining genetic strategies with external drug-control. Thus, it was next sought to design exogenous molecules that could be combined with the present encodable components in order to achieve versatile “chemogenetic” control. Soluble binding proteins can be used to block trans-cellular interactions between endogenous Notch receptors and ligands. It was tested whether soluble biotin-derived compounds could be used to competitively interact between our synthetic ligand and receptor (FIG. 12G). […] In addition to their selective recognition by Anti-Biotinamide, the cell-impermeant nature of biocytin and bis-biotinamide offer the advantageous feature of limiting disruption/inhibition to cell-surface presented components.
The luciferase assay used for coculture studies was adapted from Gordon et al^59. Synthetic Notch receiver cells were reverse transfected in a 96-well plate (50 k cells per well) with 9.9 ng of UAS:Firefly-Luciferase plasmid and 0.1 ng Nanoluc plasmid per well. […] 48 hr post-transfection, cells were lysed (Nano-Go Dual-Luciferase Reporter Assay System, Promega) and the luminescence was found following the manufacturer's instructions. Each well was normalized to the luminescence output of Nanoluc (transfection control).

For another test, the system named is avidin. To be noted: avidin-based systems; cited from earlier work.
Test [1] concerns anti-FITC Synthetic Notch. The test is described as follows: Coculture of anti-FITC Synthetic Notch cells and anti-biotin ligand cells with biotin-FITC linker (Luciferase reporter). Format: cell-based. Particulars: FIG. 20. The source says:
FIG. 20 depicts graphs in which the x-axis of the plot is the biotin-FTC concentration, the y-axis is the extent of signaling (via a Luciferase reporter). The legend gives two different sender-cells used in the coculture—one with the anti-biotin ligand, and one without.
Described herein is the use of biotin-FITC as a small-molecule linker with the ability to induce trans-cellular signaling. In this coculture system, a first group of cells expressed an anti-FITC Synthetic Notch, which can bind one end of the biotin-FITC, and a second group of cells expressed an anti-biotin ligand (described in other Examples herein), which binds the other end.

A further test deals with scFab-Gal4 and AP-VP64. Put plainly: UAS:H2B-mCherry reporter cells with scFab-Gal4, AP-VP64 and BirA, treated with soluble biotinamides. Format: cell-based. Particulars: varying concentrations, compared with biocytin. As to the method:
Reporter HEK293 cells with an integrated UAS:H2B-mCherry construct were transfected with a construct containing constitutive expression of AP-VP64 and AntiBiotinamide-scFAB-Gal4. The cells were cotransfected with a construct containing Citrine-HA-BirA. At the time of transfection, samples were incubated with different concentrations of Biocytin and Biotin-cadaverine. Samples were measured the next day with flow cytometry, gating for Citrine expression.
Lastly, it was asked whether intracellular protein complexes could be disrupted using exogenously applied biotinamide. To test this possibility, cells were treated with biocytin as well as biotin-cadaverine, a membrane-permeant biotinamide derivative (6). To measure the disruption of intracellular complexes, BirA was co-expressed alongside scFab-Gal4 and AP-VP64 in UAS:H2B-mCherry reporter cells, and the extent of mCherry expression was quantified from cells treated with varying concentrations of biocytin and biotin-cadaverine (FIG. 18A).

Test [2] concerns Anti-Biotinamide SynNotch. The test is described as follows: Anti-Biotinamide SynNotch cells on TCO-BSA coated wells with added biotin-tetrazine, flow cytometry. Format: cell-based. From the text: (FIG. 13A). Receptors that are specific to biotinamide process inputs dependent on the biotinylation state of the ligand. (FIG. 13B). Anti-Biotinamide SynNotch expressing cells activate to both biotin-based and desthiobiotin-based substrates. The cells activate with slightly less adsorbed biotin than desthiobiotin. (FIG. 13C). Cells expressing Anti-Biotinamide SynNotch were cocultured with cells transfected with an AP-tagged cell surface ligand with or without BirA, or non-transfected cells. (FIG. 13D). Biotin-tetrazine (4) is a bispecific molecule that will bind to the Anti-Biotinamide antibody fragment and TCO-(5), which is conjugated to BSA. (FIG. 13E). Anti-Biotinamide SynNotch expressing cells cultured on TCO-conjugated BSA will bind to exogenously added biotin-tetrazine. (FIG. 13F). Anti-Biotinamide SynNotch expressing cells were cultured on wells coated with TCO-BSA and one day later, biotin-tetrazine was added at different concentrations to the wells. At two days after plating, cellular fluorescence was analyzed with flow cytometry.
In an effort to develop synthetic agonists, a bioorthogonal chemical ligation was also exploited in order to convert a soluble biotin derivative into an immobilized (signaling competent) ligand in situ. […]

The conditions of test [3]: free biotin versus biotin with an amide linker; cited from earlier work.

Method for antiBiot synthetic Notch: We first asked if this synthetic receptor cell line could activate to various ligands coated on a 96 well plate.
Nontreated 96-well plates were coated with Fibronectin (5 ng/mL) and plated ligand in 50 μL PBS for 1-hr. Initial experiments were done with a serial dilution of ligand to determine working concentrations. The wells were rinsed three times with 200 μL PBS, and 40 k synthetic Notch receiver cells were plated in each well. Receptor activation was measured 24 hr post-plating via fluorescence microscopy or flow cytometry.
Cells analyzed with an Attune NxT flow cytometer and were gated for living cells by scatter detection. The percent activation was determined by calculating the percentage of cells with mCherry expression levels above a certain threshold.
Nontreated 96-well plates were coated with Fibronectin (5 ng/mL) and plated ligand in 50 μL PBS for 1 hr. […] Receptor activation was measured 24 hr post-plating via fluorescence microscopy or flow cytometry.
Flow Cytometry Cells analyzed with an Attune NxT flow cytometer and were gated for single cells by scatter detection (FIGS. 19A-19C). Output files were analyzed with a custom MATLAB (Mathworks) script. The percent activation was determined by calculating the percentage of cells with mCherry expression levels above a determined threshold using the non-transfected control as a guide.

`C[C@H](NC(=O)Cc1cc(F)cc(F)c1)C(=O)N[C@H](C(=O)OC(C)(C)C)c1ccccc1` [DAPT]: the “effect of Notch pathway (γ-secretase) inhibitor on mCherry expression” value in the test on apSyN (plated anti-Biotin or anti-myc antibody) is on record as “ablated mCherry expression in all cases”.
Take `N[C@@H](CCCCNC(=O)CCCC[C@@H]1SC[C@@H]2NC(=O)N[C@@H]21)C(=O)O` [biocytin]: in the test on antiBiot synthetic Notch, the “concentration at which activation was lowered” value came out at 3 µM. The “inhibition of cell signaling (luciferase) by competitive binding to the ligand” value (“inhibition of cell signaling” below) in the test with anti-Biotin ligand is listed as “able to inhibit cell signaling to some degree; also recorded: act as inhibitors of signaling”.
On to `O=C(O)CCCC[C@@H]1SC[C@@H]2NC(=O)N[C@@H]21` [biotin], for which the “inhibition of cell signaling” value in the test with anti-Biotin ligand is listed as “limited impact on cell signaling”.
For the molecule `C[C@@H]1NC(=O)N[C@@H]1CCCCCC(=O)O` [desthiobiotin], in the test with avidin, the “binding constant, fold less than biotin” value was 106 fold.
For the molecule “Neutravidin: adsorbed biotin-binding protein”, the “reporter (mCherry) activation by plated ligand” value in the test on apSyN was “able to activate apSyN cells, but has decreased activation at higher concentrations”; with apSyN (listed as neutravidin), “can activate the biotinylated receptor”.
For the molecule biotin-FITC, the “signaling capacity versus concentration” value in test [1] was “low concentrations do not induce signaling, and high concentrations lead to lower signaling”.
Consider biotin-cadaverine, for which the “inhibition of intracellular biotin-dependent reporter (mCherry) expression” value in the test with scFab-Gal4 and AP-VP64 is “more sensitive”; in the test with scFab-Gal4 and AP-VP64 (listed as Biotin-cadaverine) it was “effective competitive inhibitor”.
Turning to biotin-tetrazine, the reporter activation result in test [2] (biotin-tetrazine added one day after plating on TCO-BSA) is given as “able to activate reporter expression only when cultured with biotin-tetrazine”. Moreover, the “inhibition of receptor activation” value in test [2] (high concentrations of biotin-tetrazine) is “inhibited with high concentrations”.
For bis-biotinamide, the “inhibition of cell signaling” value is “more potent inhibition” in the test with anti-Biotin ligand and “increased ability to inhibit cell activation; also recorded: inhibits more effectively” in the test on anti-Biotin ligand (listed as Bis-biotinamide).

B1: biotinamide-specific antibody: antibody from which the anti-biotinamide single chain variable fragment was developed (antibody)
heavy: EVQLQQSGAELVKPGASVKLSCTSSGFNNKDTFFQWVKQRPEEGLEWIGRIDPANGFTKYDPKFQGKATITVDTSSNTAYLQLNSLTSEDTALYYCTRWDTYGAAWFAYWGQGTLVTVSAAKTTPPSVYPLAPGSAAQTNSMVTLGCLVKGYFPEPVTVTWNSGSLSSGVHTFPAVLQSDLYTLSSSVTVPSSTWPSETVTCNVAHPASSTKVDKKIVPR
light: DIQMTQSPASLSASVGETVTITCRASGNIHNYLSWFQQKQGKSPQLLVYSAKTLADGVPSRFSGSGSGTQYSLKINSLQPEDFGTYYCQHFWSSIYTFGGGTKLEIKRADAAPTVSIFPPSSEQLTSGGASVVCFLNNFYPKDINVKWKIDGSERQNGVLNSWTDQDSKDSTYSMSSTLTLTKDEYERHNSYTCEATHKTSTSPIVKSFNRNEC
B1: the binding specificity result in test [3] is recorded as “does not bind to free biotin but binds to biotin with an amide linker”.
